Data from patent US5830851A (Affymax Technologies N.V., priority 1995, dated 1998).
“Also recorded” adds a separate entry of the source. Each block holds one compound with its values, some of them ahead of it. Residues, ends and D or L forms follow the SMILES beside them. No end group written: not given here.

Key:
[1] = molecular target: T1, human EPO-R (FDCP-1/hEPO-R cells) (Homo sapiens, UniProt P19235); assay: FDCP-1/hEPO-R cell proliferation bioassay; type: cell-based
T1 construct: expressed in transfected cells; host or cells: FDCP-1 (murine hematopoietic progenitor cell line)
T1 sequence (P19235 25-508): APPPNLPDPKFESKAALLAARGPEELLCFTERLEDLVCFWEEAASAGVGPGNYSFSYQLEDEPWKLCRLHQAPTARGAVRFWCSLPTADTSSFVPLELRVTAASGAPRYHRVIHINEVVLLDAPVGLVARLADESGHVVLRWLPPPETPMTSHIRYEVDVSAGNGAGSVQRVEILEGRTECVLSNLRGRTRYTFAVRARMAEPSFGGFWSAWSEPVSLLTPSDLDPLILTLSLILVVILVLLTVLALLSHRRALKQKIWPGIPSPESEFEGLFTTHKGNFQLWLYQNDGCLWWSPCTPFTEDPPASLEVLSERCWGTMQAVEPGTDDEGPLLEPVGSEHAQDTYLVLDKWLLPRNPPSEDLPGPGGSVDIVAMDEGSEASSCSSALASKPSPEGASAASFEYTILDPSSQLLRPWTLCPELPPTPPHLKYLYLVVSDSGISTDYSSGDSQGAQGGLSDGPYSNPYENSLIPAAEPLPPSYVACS
Protocol: One assay utilized FDCP-1, a growth factor dependent murine multi-potential primitive hematopoietic progenitor cell line (see, e.g., Dexter et al. (1980) J. Exp. Med. 152:1036-1047), as the parental cell line. This cell line can proliferate, but not differentiate, when supplemented with WEHI3-conditioned media (a medium that contains IL-3, ATCC number T1B68).
In brief, the cells are grown to half stationary density in the presence of the necessary growth factors. The cells are then washed in PBS and starved for 16-24 hours in whole media without the growth factors. After determining the viability of the cells, stock solutions (in whole media without the growth factors) are made to give about 10^5 cells per 50 microliters. […] Cells (50 microliters) are added to each well and the cells are incubated 24-48 hours, at which point the negative controls should die or be quiescent. Cell proliferation is then measured by techniques known in the art, such as an MTT assay which correlates with ^3 H-thymidine incorporation as an indication of cell proliferation (see, Mosmann (1983) J. Immunol. Methods 65:55).

[2] = molecular target: T2, truncated human erythropoietin receptor (Homo sapiens, UniProt P19235); assay: cell-based
T2 sequence (P19235 25-468 limits assumed): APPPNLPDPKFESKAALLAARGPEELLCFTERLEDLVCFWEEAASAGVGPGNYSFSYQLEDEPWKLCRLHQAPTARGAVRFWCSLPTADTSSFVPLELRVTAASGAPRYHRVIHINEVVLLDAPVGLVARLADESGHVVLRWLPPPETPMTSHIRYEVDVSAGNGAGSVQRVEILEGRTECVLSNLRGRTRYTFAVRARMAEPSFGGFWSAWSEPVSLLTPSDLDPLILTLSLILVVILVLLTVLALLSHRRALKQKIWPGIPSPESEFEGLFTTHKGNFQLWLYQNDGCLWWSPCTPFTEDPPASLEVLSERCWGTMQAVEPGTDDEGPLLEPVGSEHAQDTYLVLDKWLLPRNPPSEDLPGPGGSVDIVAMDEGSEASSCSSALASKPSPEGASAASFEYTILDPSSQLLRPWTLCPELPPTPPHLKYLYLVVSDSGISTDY
Protocol: Cells are counted and resuspended at a concentration of 800,000 cells/ml. Approximately forty thousand cells (50μ) are added to each well of a 96 well microtiter plate. Peptide is added to each well in triplicate. A standard dose response determination is run with each series of peptides. After a forty-two hr incubation (≈2 doubling), each well is pulsed with 1 μCi/well Thymidine. Cells are incubated an additional six hr at which time cells are harvested and counted to assess thymidine incorporation as an indicator of cell proliferation.

[3] = molecular target: T3, extracellular domain of the human erythropoietin receptor (EPO binding protein, EBP) (Homo sapiens, UniProt P19235); assay: Immobilized EBP based [125I]EPO competition binding assay; details: IC50 relative to RWJ61233 (IC50 of 5 μM)
T3 construct: made in house; host or cells: E. coli
T3 sequence (P19235 25-250 limits assumed): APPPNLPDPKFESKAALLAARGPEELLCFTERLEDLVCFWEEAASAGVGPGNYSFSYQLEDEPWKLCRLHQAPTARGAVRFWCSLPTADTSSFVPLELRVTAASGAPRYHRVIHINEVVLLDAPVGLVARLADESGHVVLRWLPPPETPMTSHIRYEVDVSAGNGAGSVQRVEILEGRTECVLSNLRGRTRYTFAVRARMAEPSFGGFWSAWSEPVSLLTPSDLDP
Protocol: The iodoacetyl activation chemistry of Sufolink beads (Pierce Chemical Co, Rockford, Ill.) is specific for free thiols and assures that the linkage is not easily reversible. EBP-Sulfolink beads were made as follows: SulfoLink gel suspension (10 ml) was mixed with coupling buffer (40 ml: 50 mM Tris, pH 8.3, 5 mM EDTA) and the gel was allowed to settle. The supernatant was removed and the EBP (0.3-1 mg/ml in coupling buffer) to be bound was added directly to the washed beads. The mixture was rocked gently for 30 minutes at room temperature, and the beads were allowed to settle for 1 hour at room temperature. […] The amount of EBP which was covalently bound to the beads was determined by comparing the OD280 of the original EBP solution to the total OD280 recovered in the reaction supernatant and the two 20 ml washes.
Binding assays were initiated by the addition of EBP beads (50 μl) to individual reaction tubes. […] The tubes were incubated for five hours (a time period experimentally determined as adequate for the establishment of equilibrium) at room temperature with gentle rocking. […]
Competitive binding analysis assays of candidate peptides were performed as outlined below. […] The columns containing the washed beads were placed in 12×75 mm glass tubes and bound radioactivity levels were determined using a gamma counter.

Compound: CC(C)C[C@@H]1NC(=O)[C@@H]2CCCN2C(=O)CNC(=O)[C@H](Cc2ccccc2)NC(=O)[C@H](Cc2c[nH]cn2)NC(=O)[C@@H](NC(=O)[C@H](CO)NC(=O)[C@H](Cc2ccc(O)cc2)NC(=O)[C@@H](NC(=O)CNC(=O)CN)[C@@H](C)O)CSSC[C@@H](C(=O)N[C@@H](CCCCN)C(=O)N2CCC[C@H]2C(=O)N[C@@H](CCC(N)=O)C(=O)NCC(=O)NCC(=O)N[C@@H](CO)C(=O)N[C@@H](CO)C(=O)N[C@@H](CCCCNC(=O)CCCCCNC(=O)CCCC[C@@H]2SC[C@@H]3NC(=O)N[C@@H]32)C(N)=O)NC(=O)[C@H](C(C)C)NC(=O)[C@H](Cc2c[nH]c3ccccc23)NC(=O)[C@H]([C@@H](C)O)NC1=O [AF11505] (HELM PEPTIDE1{G.G.T.Y.S.C.H.F.G.P.L.T.W.V.C.K.P.Q.G.G.S.S.K.[am]}|PEPTIDE2{[O=C1N[C@H]2[C@H](CS[C@H]2CCCCC(=O)[*:2])N1].[O=C(CCCCCN[*:1])[*:2]]}$PEPTIDE1,PEPTIDE2,23:R3-2:R2|PEPTIDE1,PEPTIDE1,6:R3-15:R3$$$V2.0; N-terminus and C-terminus assumed; bridges inferred)
EC50 ([1]; free peptides, read-out: EPO-ED50): ~1000 nM

Compound: CC(C)C[C@@H]1NC(=O)[C@@H]2CCCN2C(=O)CNC(=O)[C@H](Cc2ccccc2)NC(=O)[C@H](Cc2c[nH]cn2)NC(=O)[C@@H](NC(=O)[C@H](CO)NC(=O)[C@H](Cc2ccc([N+](=O)[O-])cc2)NC(=O)[C@@H](NC(=O)CNC(=O)CN)[C@@H](C)O)CSSC[C@@H](C(=O)N[C@@H](CCCCN)C(=O)N2CCC[C@H]2C(=O)N[C@@H](CCC(N)=O)C(=O)NCC(=O)NCC(N)=O)NC(=O)[C@H](C(C)C)NC(=O)[C@H](Cc2c[nH]c3ccccc23)NC(=O)[C@H]([C@@H](C)O)NC1=O [RWJ 61894, GGTXSCHFGPLTWVCKPQGG] (HELM PEPTIDE1{G.G.T.[O=C([C@H](Cc1ccc([N+](=O)[O-])cc1)N[*:1])[*:2]].S.C.H.F.G.P.L.T.W.V.C.K.P.Q.G.G.[am]}$PEPTIDE1,PEPTIDE1,6:R3-15:R3$$$V2.0)
EC50 [2]: 800 nM

Compound: CC(C)C[C@@H]1NC(=O)[C@@H]2CCCN2C(=O)CNC(=O)[C@H](Cc2ccccc2)NC(=O)[C@H](Cc2c[nH]cn2)NC(=O)[C@@H](NC(=O)[C@H](CO)NC(=O)[C@H](Cc2ccc(N)cc2)NC(=O)[C@@H](NC(=O)CNC(=O)CN)[C@@H](C)O)CSSC[C@@H](C(=O)N[C@@H](CCCCN)C(=O)N2CCC[C@H]2C(=O)N[C@@H](CCC(N)=O)C(=O)NCC(=O)NCC(N)=O)NC(=O)[C@H](C(C)C)NC(=O)[C@H](Cc2c[nH]c3ccccc23)NC(=O)[C@H]([C@@H](C)O)NC1=O [RWJ 62019, GGTXSCHFGPLTWVCKPQGG] (HELM PEPTIDE1{G.G.T.[Nc1ccc(C[C@H](N[*:1])C(=O)[*:2])cc1].S.C.H.F.G.P.L.T.W.V.C.K.P.Q.G.G.[am]}$PEPTIDE1,PEPTIDE1,6:R3-15:R3$$$V2.0)
EC50 [2]: 3000 nM

Relative Binding [3]: 4
Compound: CC(=O)NCC(=O)NCC(=O)N[C@H](C(=O)N[C@@H](Cc1ccc(O)cc1)C(=O)N[C@@H](CO)C(=O)N[C@H]1CSSC[C@@H](C(=O)N[C@@H](CCCCN)C(=O)N2CCC[C@H]2C(=O)N[C@@H](CCC(N)=O)C(=O)NCC(=O)NCC(N)=O)NC(=O)[C@H](C(C)C)NC(=O)[C@H](Cc2c[nH]c3ccccc23)NC(=O)[C@H]([C@@H](C)O)NC(=O)[C@H](CC(C)C)NC(=O)[C@@H]2CCCN2C(=O)CNC(=O)[C@H](Cc2ccccc2)NC(=O)[C@H](Cc2c[nH]cn2)NC1=O)[C@@H](C)O [RWJ 62146] (HELM PEPTIDE1{[ac].G.G.T.Y.S.C.H.F.G.P.L.T.W.V.C.K.P.Q.G.G.[am]}$PEPTIDE1,PEPTIDE1,7:R3-16:R3$$$V2.0)

reduction in EPO-ED50 / increase in potency over the free peptide [1]: one log reduction
Compound: GGTYSCHFGPLTWVCKPQGGSSK+G anti-B: biotinylated peptide preincubated with purified goat anti-biotin IgG at a 2:1 molar ratio (cysteine pairing not given here; also: biotinylated, site not given here, preincubated with goat anti-biotin IgG at 2:1 molar ratio)

Relative Binding [3]: > 100
Compound: RWJ 61721: sequence analog peptide shown only as a drawing in Table 19 (GGTYSEHFGPLTWVKKPQGG)

Compound: Streptavidin: streptavidin alone, control for the complex [reference compound]
stimulatory effect alone ([1]; tested without peptide): some small stimulatory effect at the highest concentrations; also recorded: marginal activity at high concentrations
